Data: the kinase profiling compilation of Christmann-Franck et al. (2016)

Legend:
Experiment in all cases: KINOMEscan competition binding
Conditions in all cases: compound 10.0 µM
PDPK1 (human) = PDPK1 (human) (UniProt O15530)
[1] = target: TYK2 JH2 pseudokinase (human) (UniProt P29597)
MUSK (human) = MUSK (human) (UniProt O15146)
TYRO3 (human) = TYRO3 (human) (UniProt Q06418)
AURKB (human) = AURKB (human) (UniProt Q96GD4)
CSNK1D (human) = CSNK1D (human) (UniProt P48730)
IGF1R (human) = IGF1R (human) (UniProt P08069)
BMPR1B (human) = BMPR1B (human) (UniProt O00238)
MAPK4 (human) = MAPK4 (human) (UniProt P31152)
MTOR (human) = MTOR (human) (UniProt P42345)
BRSK1 (human) = BRSK1 (human) (UniProt Q8TDC3)
HUNK (human) = HUNK (human) (UniProt P57058)
PLK2 (human) = PLK2 (human) (UniProt Q9NYY3)
CDK19 (human) = CDK19 (human) (UniProt Q9BWU1)
MLTK (human) = MLTK (human) (UniProt Q9NYL2)
PI4KB (human) = PI4KB (human) (UniProt Q9UBF8)
CDK13 (human) = CDK13 (human) (UniProt Q14004)
CSNK2A2 (human) = CSNK2A2 (human) (UniProt P19784)
MET (human) = MET (human) (UniProt P08581)
WEE2 (human) = WEE2 (human) (UniProt P0C1S8)
MAPK7 (human) = MAPK7 (human) (UniProt Q13164)
PIK3CA (human) = PIK3CA (human) (UniProt P42336)
YES1 (human) = YES1 (human) (UniProt P07947)
LATS1 (human) = LATS1 (human) (UniProt O95835)
CDKL1 (human) = CDKL1 (human) (UniProt Q00532)
ACVR1B (human) = ACVR1B (human) (UniProt P36896)
ACVR1 (human) = ACVR1 (human) (UniProt Q04771)
AKT3 (human) = AKT3 (human) (UniProt Q9Y243)
KDR (human) = KDR (human) (UniProt P35968)
CSNK1A1 (human) = CSNK1A1 (human) (UniProt P48729)
NTRK2 (human) = NTRK2 (human) (UniProt Q16620)
HCK (human) = HCK (human) (UniProt P08631)
IRAK3 (human) = IRAK3 (human) (UniProt Q9Y616)
TNNI3K (human) = TNNI3K (human) (UniProt Q59H18)
BRAF (human) = BRAF (human) (UniProt P15056)
MAPK1 (human) = MAPK1 (human) (UniProt P28482)
MYLK4 (human) = MYLK4 (human) (UniProt Q86YV6)
RPS6KA6 KD2 (human) = RPS6KA6 KD2 (human) (UniProt Q9UK32)
RPS6KA1 KD1 (human) = RPS6KA1 KD1 (human) (UniProt Q15418)
CDK3 (human) = CDK3 (human) (UniProt Q00526)

Chain of TYRO3 (human) (Q06418 whole entry, looked up): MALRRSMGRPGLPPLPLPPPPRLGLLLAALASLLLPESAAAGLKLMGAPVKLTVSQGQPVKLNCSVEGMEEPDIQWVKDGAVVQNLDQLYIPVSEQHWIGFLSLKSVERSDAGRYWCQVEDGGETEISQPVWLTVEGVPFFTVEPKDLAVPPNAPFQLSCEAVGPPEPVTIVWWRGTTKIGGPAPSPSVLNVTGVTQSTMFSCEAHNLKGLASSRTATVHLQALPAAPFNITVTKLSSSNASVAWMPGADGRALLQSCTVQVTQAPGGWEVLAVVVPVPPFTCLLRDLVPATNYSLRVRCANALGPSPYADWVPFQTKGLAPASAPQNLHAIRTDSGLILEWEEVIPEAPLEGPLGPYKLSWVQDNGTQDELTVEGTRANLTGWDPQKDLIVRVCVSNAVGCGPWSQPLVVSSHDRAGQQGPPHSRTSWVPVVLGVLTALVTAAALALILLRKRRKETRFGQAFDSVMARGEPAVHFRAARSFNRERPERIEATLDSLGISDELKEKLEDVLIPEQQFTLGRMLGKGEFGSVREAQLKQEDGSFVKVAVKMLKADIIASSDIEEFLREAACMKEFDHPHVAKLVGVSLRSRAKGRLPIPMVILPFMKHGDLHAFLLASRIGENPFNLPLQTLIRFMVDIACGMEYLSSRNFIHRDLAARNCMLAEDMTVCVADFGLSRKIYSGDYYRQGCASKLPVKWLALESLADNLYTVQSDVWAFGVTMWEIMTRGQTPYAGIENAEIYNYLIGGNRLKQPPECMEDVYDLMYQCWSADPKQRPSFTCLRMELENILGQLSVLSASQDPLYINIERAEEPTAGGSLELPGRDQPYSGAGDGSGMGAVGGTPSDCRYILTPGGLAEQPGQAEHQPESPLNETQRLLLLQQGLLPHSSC
Chain of RPS6KA6 KD2 (human) (Q9UK32 whole entry, looked up): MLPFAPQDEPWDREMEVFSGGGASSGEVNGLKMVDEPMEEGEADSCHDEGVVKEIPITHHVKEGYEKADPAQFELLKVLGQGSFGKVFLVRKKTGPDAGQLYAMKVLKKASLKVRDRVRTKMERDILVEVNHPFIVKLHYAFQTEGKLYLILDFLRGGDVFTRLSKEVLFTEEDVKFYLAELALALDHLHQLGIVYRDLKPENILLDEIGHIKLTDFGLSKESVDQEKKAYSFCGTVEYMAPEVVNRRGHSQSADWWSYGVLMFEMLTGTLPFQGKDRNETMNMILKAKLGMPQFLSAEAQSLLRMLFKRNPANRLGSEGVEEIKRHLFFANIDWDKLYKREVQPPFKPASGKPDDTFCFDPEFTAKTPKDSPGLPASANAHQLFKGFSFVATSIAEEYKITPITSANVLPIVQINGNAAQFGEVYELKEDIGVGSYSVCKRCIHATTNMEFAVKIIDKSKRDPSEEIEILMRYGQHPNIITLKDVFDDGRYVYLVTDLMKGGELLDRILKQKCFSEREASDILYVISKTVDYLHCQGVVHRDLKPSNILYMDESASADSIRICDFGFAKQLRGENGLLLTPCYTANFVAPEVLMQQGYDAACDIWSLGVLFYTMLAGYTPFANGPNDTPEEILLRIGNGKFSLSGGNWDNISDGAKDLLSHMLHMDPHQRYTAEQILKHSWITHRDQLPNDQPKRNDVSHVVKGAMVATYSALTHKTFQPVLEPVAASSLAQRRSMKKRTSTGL
Chain of TYK2 JH2 pseudokinase (human) (P29597 whole entry, looked up): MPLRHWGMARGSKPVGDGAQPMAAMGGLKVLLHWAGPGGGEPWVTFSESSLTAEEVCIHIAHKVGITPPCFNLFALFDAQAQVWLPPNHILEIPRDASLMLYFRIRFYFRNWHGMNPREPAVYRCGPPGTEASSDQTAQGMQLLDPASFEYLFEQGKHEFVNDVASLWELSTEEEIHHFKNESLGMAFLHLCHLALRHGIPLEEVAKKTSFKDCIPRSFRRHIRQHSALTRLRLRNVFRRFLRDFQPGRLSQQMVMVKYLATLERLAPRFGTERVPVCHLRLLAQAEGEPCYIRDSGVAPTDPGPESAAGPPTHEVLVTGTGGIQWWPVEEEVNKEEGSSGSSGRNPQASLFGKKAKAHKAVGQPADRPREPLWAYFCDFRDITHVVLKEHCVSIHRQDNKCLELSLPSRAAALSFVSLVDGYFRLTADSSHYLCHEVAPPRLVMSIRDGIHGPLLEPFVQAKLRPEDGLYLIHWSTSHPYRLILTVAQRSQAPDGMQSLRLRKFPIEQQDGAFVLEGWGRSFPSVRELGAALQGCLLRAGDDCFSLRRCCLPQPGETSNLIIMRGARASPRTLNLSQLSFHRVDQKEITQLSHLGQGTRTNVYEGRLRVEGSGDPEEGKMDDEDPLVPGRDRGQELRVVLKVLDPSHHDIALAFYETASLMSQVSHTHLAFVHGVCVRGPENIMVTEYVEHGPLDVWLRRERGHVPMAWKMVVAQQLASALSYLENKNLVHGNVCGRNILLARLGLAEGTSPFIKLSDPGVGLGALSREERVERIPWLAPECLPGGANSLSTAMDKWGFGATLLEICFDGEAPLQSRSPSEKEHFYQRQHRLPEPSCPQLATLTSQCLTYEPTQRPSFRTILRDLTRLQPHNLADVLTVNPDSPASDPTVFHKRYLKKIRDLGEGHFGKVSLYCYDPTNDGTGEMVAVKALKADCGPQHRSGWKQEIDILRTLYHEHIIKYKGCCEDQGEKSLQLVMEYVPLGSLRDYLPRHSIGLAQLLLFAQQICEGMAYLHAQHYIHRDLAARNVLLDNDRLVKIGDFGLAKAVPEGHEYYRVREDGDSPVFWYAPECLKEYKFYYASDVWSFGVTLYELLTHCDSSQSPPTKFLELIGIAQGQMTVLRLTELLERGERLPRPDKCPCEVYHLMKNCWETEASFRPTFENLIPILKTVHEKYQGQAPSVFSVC
Chain of MAPK7 (human) (Q13164 whole entry, looked up): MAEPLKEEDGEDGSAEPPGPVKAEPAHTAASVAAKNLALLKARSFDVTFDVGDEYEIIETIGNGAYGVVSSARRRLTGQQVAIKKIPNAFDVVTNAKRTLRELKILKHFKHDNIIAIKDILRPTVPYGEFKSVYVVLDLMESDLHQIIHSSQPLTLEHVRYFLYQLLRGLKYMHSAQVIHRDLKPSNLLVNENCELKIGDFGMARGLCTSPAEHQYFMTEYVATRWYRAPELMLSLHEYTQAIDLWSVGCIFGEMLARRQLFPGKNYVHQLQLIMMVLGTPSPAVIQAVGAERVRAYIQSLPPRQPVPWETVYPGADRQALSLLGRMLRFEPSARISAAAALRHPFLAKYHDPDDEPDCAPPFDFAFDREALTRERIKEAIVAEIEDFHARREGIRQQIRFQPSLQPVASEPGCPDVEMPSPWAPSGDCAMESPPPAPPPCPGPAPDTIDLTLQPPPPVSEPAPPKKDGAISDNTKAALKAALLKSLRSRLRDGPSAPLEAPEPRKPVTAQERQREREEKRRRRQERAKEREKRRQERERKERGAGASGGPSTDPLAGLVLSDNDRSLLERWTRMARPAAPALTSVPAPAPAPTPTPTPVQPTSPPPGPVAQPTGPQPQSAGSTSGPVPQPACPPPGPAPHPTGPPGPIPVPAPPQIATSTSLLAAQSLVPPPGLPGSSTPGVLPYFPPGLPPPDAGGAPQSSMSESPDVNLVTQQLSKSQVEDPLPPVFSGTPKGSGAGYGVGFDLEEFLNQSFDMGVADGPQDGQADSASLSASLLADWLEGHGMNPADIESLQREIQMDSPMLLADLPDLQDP
Chain of RPS6KA1 KD1 (human) (Q15418 whole entry, looked up): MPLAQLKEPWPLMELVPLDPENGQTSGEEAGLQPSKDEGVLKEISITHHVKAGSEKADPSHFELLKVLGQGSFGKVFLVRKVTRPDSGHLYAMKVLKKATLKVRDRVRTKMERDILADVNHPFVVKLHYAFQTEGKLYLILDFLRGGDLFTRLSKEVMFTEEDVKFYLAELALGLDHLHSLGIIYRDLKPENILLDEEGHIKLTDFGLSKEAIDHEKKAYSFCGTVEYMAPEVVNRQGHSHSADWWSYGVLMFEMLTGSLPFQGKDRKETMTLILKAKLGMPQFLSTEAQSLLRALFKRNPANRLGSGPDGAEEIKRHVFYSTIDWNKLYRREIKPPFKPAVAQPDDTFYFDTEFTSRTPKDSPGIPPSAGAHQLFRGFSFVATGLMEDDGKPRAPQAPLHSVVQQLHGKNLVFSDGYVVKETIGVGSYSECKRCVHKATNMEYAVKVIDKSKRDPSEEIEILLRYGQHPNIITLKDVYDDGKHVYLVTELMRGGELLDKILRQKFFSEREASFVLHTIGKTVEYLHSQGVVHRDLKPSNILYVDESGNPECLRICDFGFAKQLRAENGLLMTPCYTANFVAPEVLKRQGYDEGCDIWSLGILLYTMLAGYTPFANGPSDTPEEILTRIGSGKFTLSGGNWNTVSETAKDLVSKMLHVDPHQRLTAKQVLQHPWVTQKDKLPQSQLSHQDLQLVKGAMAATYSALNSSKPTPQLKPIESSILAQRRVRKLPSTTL
Chain of PDPK1 (human) (O15530 whole entry, looked up): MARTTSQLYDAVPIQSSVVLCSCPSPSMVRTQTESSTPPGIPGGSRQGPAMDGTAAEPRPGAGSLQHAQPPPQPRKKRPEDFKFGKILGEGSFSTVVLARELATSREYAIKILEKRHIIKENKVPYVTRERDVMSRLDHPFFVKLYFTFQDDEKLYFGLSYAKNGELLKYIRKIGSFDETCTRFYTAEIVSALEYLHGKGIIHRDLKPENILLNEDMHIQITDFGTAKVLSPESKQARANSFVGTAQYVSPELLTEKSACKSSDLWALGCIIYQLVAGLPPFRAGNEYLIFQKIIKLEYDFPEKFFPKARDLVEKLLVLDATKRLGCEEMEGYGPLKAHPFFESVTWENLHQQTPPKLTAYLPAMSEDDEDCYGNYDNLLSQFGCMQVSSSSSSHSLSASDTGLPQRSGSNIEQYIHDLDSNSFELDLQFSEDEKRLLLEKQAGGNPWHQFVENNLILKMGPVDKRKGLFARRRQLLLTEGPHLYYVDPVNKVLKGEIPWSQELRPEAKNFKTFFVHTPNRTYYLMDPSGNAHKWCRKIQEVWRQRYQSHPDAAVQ

| SMILES | kinase still bound, per cent of control (PDPK1 (human)) [%] | kinase still bound, per cent of control [1] [%] | kinase still bound, per cent of control (MUSK (human)) [%] | kinase still bound, per cent of control (TYRO3 (human)) [%] | kinase still bound, per cent of control (AURKB (human)) [%] | kinase still bound, per cent of control (CSNK1D (human)) [%] | kinase still bound, per cent of control (IGF1R (human)) [%] | kinase still bound, per cent of control (BMPR1B (human)) [%] | kinase still bound, per cent of control (MAPK4 (human)) [%] | kinase still bound, per cent of control (MTOR (human)) [%] | kinase still bound, per cent of control (BRSK1 (human)) [%] | kinase still bound, per cent of control (HUNK (human)) [%] | kinase still bound, per cent of control (PLK2 (human)) [%] | kinase still bound, per cent of control (CDK19 (human)) [%] | kinase still bound, per cent of control (MLTK (human)) [%] | kinase still bound, per cent of control (PI4KB (human)) [%] | kinase still bound, per cent of control (CDK13 (human)) [%] | kinase still bound, per cent of control (CSNK2A2 (human)) [%] | kinase still bound, per cent of control (MET (human)) [%] | kinase still bound, per cent of control (WEE2 (human)) [%] | further results |
| --- | --- | --- | --- | --- | --- | --- | --- | --- | --- | --- | --- | --- | --- | --- | --- | --- | --- | --- | --- | --- | --- |
| O=c1cc(N2CCOCC2)oc2c(-c3cccc4c3sc3ccccc34)cccc12 | 95 | 100 | 100 | 100 | 100 | 89 | 97 | 35 | 100 | 18 | 100 | 75 | 100 | 100 | 93 | 100 | 100 | 100 | 63 | 100 | kinase still bound, per cent of control (MAPK7 (human)): 100%; kinase still bound, per cent of control (PIK3CA (human)): 22%; kinase still bound, per cent of control (YES1 (human)): 94%; kinase still bound, per cent of control (LATS1 (human)): 100%; kinase still bound, per cent of control (CDKL1 (human)): 87%; kinase still bound, per cent of control (ACVR1B (human)): 91%; kinase still bound, per cent of control (ACVR1 (human)): 91%; kinase still bound, per cent of control (AKT3 (human)): 98%; kinase still bound, per cent of control (KDR (human)): 100%; kinase still bound, per cent of control (CSNK1A1 (human)): 78%; kinase still bound, per cent of control (NTRK2 (human)): 100%; kinase still bound, per cent of control (HCK (human)): 100%; kinase still bound, per cent of control (IRAK3 (human)): 41%; kinase still bound, per cent of control (TNNI3K (human)): 86%; kinase still bound, per cent of control (BRAF (human)): 100%; kinase still bound, per cent of control (MAPK1 (human)): 95%; kinase still bound, per cent of control (MYLK4 (human)): 100%; kinase still bound, per cent of control (RPS6KA6 KD2 (human)): 79%; kinase still bound, per cent of control (RPS6KA1 KD1 (human)): 100%; kinase still bound, per cent of control (CDK3 (human)): 100% |
| CCN1CCN(C(=O)Cc2ccc(Nc3ncc(F)c(Nc4ccc(C(=O)Nc5ccccc5Cl)cc4)n3)cc2)CC1 | 96 | 12 | 11 | 79 | 14 | 100 | 46 | 22 | 82 | 20 | 88 | 49 | 88 | 76 | 2.9 | 100 | 100 | 7.8 | 8.6 | 12 | kinase still bound, per cent of control (MAPK7 (human)): 100%; kinase still bound, per cent of control (PIK3CA (human)): 83%; kinase still bound, per cent of control (YES1 (human)): 60%; kinase still bound, per cent of control (LATS1 (human)): 100%; kinase still bound, per cent of control (CDKL1 (human)): 41%; kinase still bound, per cent of control (ACVR1B (human)): 45%; kinase still bound, per cent of control (ACVR1 (human)): 13%; kinase still bound, per cent of control (AKT3 (human)): 100%; kinase still bound, per cent of control (KDR (human)): 16%; kinase still bound, per cent of control (CSNK1A1 (human)): 96%; kinase still bound, per cent of control (NTRK2 (human)): 27%; kinase still bound, per cent of control (HCK (human)): 84%; kinase still bound, per cent of control (IRAK3 (human)): 1.8%; kinase still bound, per cent of control (TNNI3K (human)): 24%; kinase still bound, per cent of control (BRAF (human)): 70%; kinase still bound, per cent of control (MAPK1 (human)): 100%; kinase still bound, per cent of control (MYLK4 (human)): 11%; kinase still bound, per cent of control (RPS6KA6 KD2 (human)): 62%; kinase still bound, per cent of control (RPS6KA1 KD1 (human)): 45%; kinase still bound, per cent of control (CDK3 (human)): 92% |
